In ChEMBL document CHEMBL4706522, “Automated design and optimization of multitarget schizophrenia drug candidates by deep learning” (Eur J Med Chem, 2020):

Assays:
[1] = biological target: T1, 5-hydroxytryptamine receptor 1A (Homo sapiens, UniProt P08908); assay: Agonist activity at 5-HT1A receptor (unknown origin) preincubated for 60 mins followed by addition of Eu-cAMP and measured after 60 mins by plate reader method; format: functional
T1 sequence (P08908 whole entry): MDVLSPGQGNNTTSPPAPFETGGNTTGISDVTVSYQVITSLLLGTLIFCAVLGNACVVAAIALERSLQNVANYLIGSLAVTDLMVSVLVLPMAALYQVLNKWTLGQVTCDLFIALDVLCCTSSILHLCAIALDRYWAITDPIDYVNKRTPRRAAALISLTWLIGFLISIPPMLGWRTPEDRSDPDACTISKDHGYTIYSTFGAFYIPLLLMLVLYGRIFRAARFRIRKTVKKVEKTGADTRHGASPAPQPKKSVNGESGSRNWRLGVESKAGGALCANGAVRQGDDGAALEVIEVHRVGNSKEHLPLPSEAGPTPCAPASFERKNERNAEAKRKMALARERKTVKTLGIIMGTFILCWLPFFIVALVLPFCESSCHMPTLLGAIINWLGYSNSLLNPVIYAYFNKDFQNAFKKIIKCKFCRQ

[2] = biological target: 5-hydroxytryptamine receptor 2A (Homo sapiens, UniProt P28223); assay: Antagonist activity at 5-HT2A receptor (unknown origin) assessed as decrease in intracellular calcium flux preincubated with calcium followed by compound challenge and measured after 10 mins by FLIPR method; format: functional, cell-based
5-hydroxytryptamine receptor 2A, sequence (P28223 whole entry): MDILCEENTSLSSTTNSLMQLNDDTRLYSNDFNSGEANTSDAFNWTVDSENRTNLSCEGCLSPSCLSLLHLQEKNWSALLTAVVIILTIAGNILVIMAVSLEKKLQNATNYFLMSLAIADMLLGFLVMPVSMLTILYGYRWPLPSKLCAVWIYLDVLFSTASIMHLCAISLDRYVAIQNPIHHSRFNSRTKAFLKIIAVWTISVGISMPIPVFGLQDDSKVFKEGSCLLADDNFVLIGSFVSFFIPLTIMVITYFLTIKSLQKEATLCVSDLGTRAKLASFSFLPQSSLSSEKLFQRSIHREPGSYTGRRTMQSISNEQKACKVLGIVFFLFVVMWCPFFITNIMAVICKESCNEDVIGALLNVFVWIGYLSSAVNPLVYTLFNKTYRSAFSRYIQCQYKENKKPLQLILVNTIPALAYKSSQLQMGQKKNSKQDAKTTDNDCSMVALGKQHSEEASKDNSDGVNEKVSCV

[3] = Toxicity in ICR mouse assessed as induction of catalepsy at 1 mg/kg, po; format: organism-based; conditions: in vivo
[4] = Toxicity in ICR mouse assessed as induction of sedation by measuring spontaneous locomotor activity at 0.3 to 3 mg/kg, po measured for 30 mins following drug administration; format: organism-based; conditions: in vivo, 0.5 h, dose 0.3-3 mg/kg
Mus musculus = assay: Antipsychotic activity in ICR mouse assessed as reduction of PCP induced hyperactivity at 3 mg/kg, ig pretreated with compound for 30 mins followed by PCP challenge for 10 mins and measured after 60 mins; format: functional; conditions: po, 1.667 h, time 100 min
D(2) dopamine receptor = D(2) dopamine receptor (Homo sapiens, UniProt P14416); assay: Antagonist activity at D2 receptor (unknown origin) preincubated for 60 mins followed by addition of Eu-cAMP and measured after 60 mins by plate reader method; format: functional
D(2) dopamine receptor, sequence (P14416 whole entry): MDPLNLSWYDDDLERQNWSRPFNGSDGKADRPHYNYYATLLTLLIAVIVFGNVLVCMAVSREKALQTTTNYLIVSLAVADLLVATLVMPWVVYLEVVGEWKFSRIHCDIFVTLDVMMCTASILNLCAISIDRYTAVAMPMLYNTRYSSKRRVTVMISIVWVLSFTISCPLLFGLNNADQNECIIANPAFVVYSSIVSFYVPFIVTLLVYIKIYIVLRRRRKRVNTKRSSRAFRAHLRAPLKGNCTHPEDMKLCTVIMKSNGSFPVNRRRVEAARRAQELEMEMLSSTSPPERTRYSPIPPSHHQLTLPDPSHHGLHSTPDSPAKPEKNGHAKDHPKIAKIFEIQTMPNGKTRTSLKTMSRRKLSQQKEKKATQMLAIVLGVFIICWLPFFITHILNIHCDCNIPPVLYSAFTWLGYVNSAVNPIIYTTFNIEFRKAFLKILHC

Row | EC50 ([1]; read-out: pEC50 (converted)) | IC50 ([2]; read-out: pIC50 (converted)) | EC50 ([1]; read-out: EC50) | IC50 ([2]; read-out: IC50) | IC50 (D(2) dopamine receptor) | Compound | Activity [3] | Activity [4] | inhibition in vivo at 3 mg/kg (Mus musculus)
1 | 3.39 nM | 129 nM |  |  |  | O=c1[nH]c(=O)n(CCCCN2CCN(c3cccc4sccc34)CC2)c2ccccc12 | Non-Toxic | Non-Toxic | 
2 |  |  | 0.51 nM | 1.64 nM |  | O=C1COc2ccccc2N1CCCCN1CCN(c2cccc3sccc23)CC1 |  |  | 39%
3 | 4.07 nM | 24.5 nM |  |  | 34.7 nM | O=C1NCC(=O)N(CCCCN2CCN(c3cccc4sccc34)CC2)c2cc(F)ccc21 |  |  | 43%
4 | 11 nM | 42.7 nM |  |  | 123 nM | CN1CC(=O)N(CCCCN2CCN(c3cccc4sccc34)CC2)c2ccccc2C1=O |  |  | 15%
5 | 1.12 nM | 18.6 nM |  |  | 20 nM | O=S1(=O)CCc2ccc(O)cc2N1CCCCN1CCN(c2cccc3sccc23)CC1 |  |  | 13%

The next lines start with the compound.

Row | Compound | EC50 ([1]; read-out: pEC50 (converted)) | IC50 ([2]; read-out: pIC50 (converted)) | EC50 ([1]; read-out: EC50) | IC50 ([2]; read-out: IC50) | IC50 (D(2) dopamine receptor) | Activity [3] | Activity [4] | inhibition in vivo at 3 mg/kg (Mus musculus)
6 | Nc1ccc2c(c1)N(CCCCN1CCN(c3cccc4sccc34)CC1)S(=O)(=O)CC2 | 0.794 nM | 2.82 nM |  |  | 67.6 nM |  |  | 48%
7 | O=C1CCc2ccc(OCCCCN3CCN(c4cccc(Cl)c4Cl)CC3)cc2N1 [ARIPIPRAZOLE] |  |  |  |  |  |  |  | 54%
8 | COc1ccc2ncc(=O)n(CCCCN3CCN(c4cccc5sccc45)CC3)c2c1 | 2.69 nM | 20.9 nM |  |  |  |  |  | 
